Data: US9296759B2, “Amino-oxazine and amino-dihydrothiazine compounds as beta-secretase modulators and methods of use” (AMGEN INC., priority 2011, dated 2016)

Tests used:
Cathepsin D = Cathepsin D (Homo sapiens (Human), UniProt P07339); test: In vitro enzymatic Cat D (Cathepsin D) FRET assay; type: biochemical; conditions: average IC50
Method: In Vitro Enzymatic Cat D (Cathepsin D) FRET (Fluorescence Resonance Energy Transfer) Assay
Recombinant CathepsinD was expressed in CHO cells. The assay buffer for CathepsinD is 0.05 M citrate pH 3.5, 10% DMSO final, 5 mM CHAPS. […] The assays are effectively started by the addition of different FRET substrates (20 nM for CathepsinD) and the combination is incubated for one hour. The FRET assay is terminated with by addition of Tris buffer, which raises the pH to neutrality, and the fluorescence is determined. The FRET substrate is a peptide with commercially available fluorophore and quencher, on opposite sides of the BACE cleavage site. […] Proteolytic cleavage of the FRET substrate releases quenching of fluorescence (CathepsinD excitation 500 nm and emission 580 nm).

[1] = test system: Aβ40 in conditioned medium of cells stably expressing Amyloid Precursor Protein (APP); test: In vitro BACE cell-based assay (HEK cell assay, Aβ40 sandwich ELISA); conditions: Homo sapiens, HEK293; average IC50, Aβ40, 24 h incubation
Method: In Vitro BACE Cell-Based Assay
The cell-based assay measures inhibition or reduction of Aβ40 in conditioned medium of test compound treated cells expressing amyloid precursor protein.
Cells stably expressing Amyloid Precursor Protein (APP) were plated at a density of 40K cells/well in 96 well plates (Costar). The cells were cultivated for 24 hours at 37° C. and 5% CO2 in DMEM supplemented with 10% FBS. The test compounds were then added to cells in 10-point dose response concentrations with the starting concentration being either 100 μM or 10 μM. The compounds were diluted from stock solutions in DMSO and the final DMSO concentration of the test compounds on cells was 0.1%. After 24 h of incubation with the test compounds the supernatant conditioned media was collected and the Aβ 40 levels were determined using a sandwich ELISA. The IC50 of the compound was calculated from the percent of control or percent inhibition of Aβ 40 as a function of the concentration of the test compound.
The sandwich ELISA to detect Aβ 40 was performed in 96 well microtiter plates, which were pre-treated with goat anti-rabbit IgG (Pierce). The capture and detecting antibody pair that were used to detect Aβ 40 from cell supernatants were affinity purified pAb40 (Biosource) and biotinylated 6E10 (Signet Labs Inc.), respectively. The optimal concentration for the pAb40 antibody was 3 μg/ml in Superblock/TBS (Pierce) that was supplemented with 0.05% Tween 20 (Sigma).
Cellular supernatants were incubated with the capture antibody for 3 h at 4° C., followed by 3 wash steps in TBS-tween (0.05%). The detecting antibody incubation was for 2 h at 4° C., again followed by the wash steps as described previously. The final readout of the ELISA is Time-Resolved Fluorescence (counts per minute) using Delfia reagents Streptavidin-Europium and Enhancement solutions (Perkin Elmer) and the Victor 2 multilabel counter (Perkin Elmer).

[2] = target: BACE 1 (beta secretase enzyme) (Homo sapiens (Human), UniProt P56817); test: In vitro enzymatic BACE FRET assay; type: biochemical; conditions: average IC50
Chain of BACE 1 (beta secretase enzyme) (P56817 46-501): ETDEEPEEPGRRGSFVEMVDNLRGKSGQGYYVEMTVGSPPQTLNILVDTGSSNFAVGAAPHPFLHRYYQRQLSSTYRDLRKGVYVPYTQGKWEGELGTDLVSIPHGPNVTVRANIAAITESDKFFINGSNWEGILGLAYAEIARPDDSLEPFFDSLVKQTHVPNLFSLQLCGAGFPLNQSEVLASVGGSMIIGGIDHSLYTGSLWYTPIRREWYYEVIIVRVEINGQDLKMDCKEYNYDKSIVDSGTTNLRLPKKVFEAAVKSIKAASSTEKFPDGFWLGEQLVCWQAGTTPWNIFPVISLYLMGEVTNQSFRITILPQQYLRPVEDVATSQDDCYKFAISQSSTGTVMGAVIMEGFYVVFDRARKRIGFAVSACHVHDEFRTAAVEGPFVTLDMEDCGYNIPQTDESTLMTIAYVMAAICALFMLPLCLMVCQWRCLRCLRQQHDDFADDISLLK
Method: In Vitro Enzymatic BACE FRET (Fluorescence Resonance Energy Transfer) Assay
The assay buffer used in this screen is 0.05 M acetate, pH 4.2, 10% DMSO final, 100 uM genapol (which is a nonionic detergent, below its Critical Micelle Concentration). […] This assay is effectively started by the addition of FRET substrate (50 nM) and the combination is incubated for one hour. The FRET assay is terminated with by addition of Tris buffer, which raises the pH to neutrality, and the fluorescence is determined. The FRET substrate is a peptide with commercially available fluorophore and quencher, on opposite sides of the BACE cleavage site. Proteolytic cleavage of the FRET substrate releases quenching of fluorescence (excitation […] and […]).

Chain of Cathepsin D (P07339 65-412, species assumed): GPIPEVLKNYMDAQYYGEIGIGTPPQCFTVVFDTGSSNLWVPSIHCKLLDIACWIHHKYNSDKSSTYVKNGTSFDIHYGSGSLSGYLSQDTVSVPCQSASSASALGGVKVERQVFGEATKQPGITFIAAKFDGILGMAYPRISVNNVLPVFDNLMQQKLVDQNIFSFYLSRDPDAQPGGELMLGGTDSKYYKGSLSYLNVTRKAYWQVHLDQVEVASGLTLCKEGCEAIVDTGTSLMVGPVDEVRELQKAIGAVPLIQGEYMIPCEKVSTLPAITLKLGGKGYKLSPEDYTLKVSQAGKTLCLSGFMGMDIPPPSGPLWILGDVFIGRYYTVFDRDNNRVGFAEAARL

| IC50 (Cathepsin D) [nM] | IC50 [1] [nM] | IC50 [2] [nM] | Structure (SMILES) |
| --- | --- | --- | --- |
| 400000 | 27 | – | COc1cc(F)c2c(c1)[C@]1(CCOC(N)=N1)c1cc(NC(=O)c3cnc(OC)cn3)ccc1O2 [Example 75, N-((4S)-2-amino-5′-fluoro-7′-methoxy-5,6-dihydrospiro[1,3-oxazine-4,9′-xanthen]-2′-yl)-5-methoxy-2-pyrazinecarboxamide] |
| 151000 | 0.3 | – | CC#CCOc1cnc(C(=O)Nc2ccc3c(c2)[C@@]2(CCOC(N)=N2)c2cc(Cl)nc(F)c2O3)cn1 [Example 48, N-((5S)-2′-amino-3-chloro-1-fluoro-5′,6′-dihydrospiro[chromeno[2,3-c]pyridine-5,4′-[1,3]oxazin]-7-yl)-5-(2-butyn-1-yloxy)-2-pyrazinecarboxamide] |
| – | 1.2 | 2.8 | COc1cnc(C(=O)Nc2ccc3c(c2)[C@@]2(CCSC(N)=N2)c2cc(-c4cncc(F)c4)nc(F)c2O3)cn1 [Example 112, N-((5S)-2′-amino-1-fluoro-3-(5-fluoro-3-pyridinyl)-5′,6′-dihydrospiro[chromeno[2,3-c]pyridine-5,4′-[1,3]thiazin]-7-yl)-5-methoxy-2-pyrazinecarboxamide] |
| – | 0.039 | 0.74 | N#Cc1ccc(C(=O)Nc2ccc3c(c2)[C@@]2(CCOC(N)=N2)c2cc(C4=CCOCC4)nc(F)c2O3)nc1 [Example 64, N-((5S)-2′-amino-3-(3,6-dihydro-2H-pyran-4-yl)-1-fluoro-5′,6′-dihydrospiro[chromeno[2,3-c]pyridine-5,4′-[1,3]oxazin]-7-yl)-5-cyano-2-pyridinecarboxamide] |
| > 400000 | 31 | – | NC1=N[C@@]2(CCO1)c1cc(NC(=O)c3ccc(Cl)cn3)ccc1Oc1c2cc(Cl)nc1F [Example 38, N-((5S)-2′-amino-3-chloro-1-fluoro-5′,6′-dihydrospiro[chromeno[2,3-c]pyridine-5,4′-[1,3]oxazin]-7-yl)-5-chloro-2-pyridinecarboxamide] |
| – | 5.7 | – | NC1=N[C@@]2(CCO1)c1cc(NC(=O)c3ccc(F)cn3)ccc1Oc1c(F)cc(-c3ccnc(F)c3)cc12 [Example 102, N-((4S)-2-amino-5′-fluoro-7′-(2-fluoro-4-pyridinyl)-5,6-dihydrospiro[1,3-oxazine-4,9′-xanthen]-2′-yl)-5-fluoro-2-pyridinecarboxamide] |
| 379000 | 7.8 | – | COc1cnc(C(=O)Nc2ccc3c(c2)[C@@]2(CCOC(N)=N2)c2cc(C4CCOCC4)cc(F)c2O3)cn1 [Example 61, N-((4S)-2-amino-5′-fluoro-7′-(tetrahydro-2H-pyran-4-yl)-5,6-dihydrospiro[1,3-oxazine-4,9′-xanthen]-2′-yl)-5-methoxy-2-pyrazinecarboxamide] |
| 400000 | 0.5 | – | N#Cc1ccc(C(=O)Nc2ccc3c(c2)[C@@]2(CCOC(N)=N2)c2cc(-c4ccnc(F)c4)cc(F)c2O3)nc1 [Example 108, N-((4S)-2-amino-5′-fluoro-7′-(2-fluoro-4-pyridinyl)-5,6-dihydrospiro[1,3-oxazine-4,9′-xanthen]-2′-yl)-5-cyano-2-pyridinecarboxamide] |
| – | 0.08 | 0.9 | Cc1nc(C(=O)Nc2ccc3c(c2)[C@@]2(CCOC(N)=N2)c2cc(C4=CCCOC4)nc(F)c2O3)cs1 [Example 85, N-((5S)-2′-amino-3-(5,6-dihydro-2H-pyran-3-yl)-1-fluoro-5′,6′-dihydrospiro[chromeno[2,3-c]pyridine-5,4′-[1,3]oxazin]-7-yl)-2-methyl-1,3-thiazole-4-carboxamide] |
| > 400000 | 20.5 | – | COc1cc(F)c2c(c1)[C@]1(CCOC(N)=N1)c1cc(NC(=O)c3ccc(Cl)cn3)ccc1O2 [Example 42, N-((4S)-2-amino-5′-fluoro-7′-methoxy-5,6-dihydrospiro[1,3-oxazine-4,9′-xanthen]-2′-yl)-5-chloro-2-pyridinecarboxamide] |
| 386000 | 279 | – | Cc1cccnc1Nc1ccc2c(c1)[C@@]1(CCOC(N)=N1)c1cc(Cl)nc(F)c1O2 [Example 41, (5S)-3-chloro-1-fluoro-N~7~-(3-methyl-2-pyridinyl)-5′,6′-dihydrospiro[chromeno[2,3-c]pyridine-5,4′-[1,3]oxazine]-2′,7-diamine] |
| 331000 | 181 | – | COc1ccc(C(=O)Nc2ccc3c(c2)[C@@]2(CCOC(N)=N2)c2cc(OC)cc(F)c2O3)c(F)c1 [Example 77, N-((4S)-2-amino-5′-fluoro-7′-methoxy-5,6-dihydrospiro[1,3-oxazine-4,9′-xanthen]-2′-yl)-2-fluoro-4-methoxybenzamide] |
| 350000 | 31.8 | – | COc1cc(F)c2c(c1)[C@]1(CCSC(N)=N1)c1cc(NC(=O)c3ccc(Cl)cn3)ccc1O2 [Example 32, N-((4S)-2-amino-5′-fluoro-7′-methoxy-5,6-dihydrospiro[1,3-thiazine-4,9′-xanthen]-2′-yl)-5-chloro-2-pyridinecarboxamide] |
| 400000 | 0.4 | – | NC1=N[C@@]2(CCO1)c1cc(NC(=O)c3ccc(Cl)cn3)ccc1Oc1c2cc(-c2ccnc(F)c2)nc1F [Example 91, N-((5S)-2′-amino-1-fluoro-3-(2-fluoro-4-pyridinyl)-5′,6′-dihydrospiro[chromeno[2,3-c]pyridine-5,4′-[1,3]oxazin]-7-yl)-5-chloro-2-pyridinecarboxamide] |
| – | 8.8 | – | COc1nc(C2=CCOCC2)cc2c1Oc1ccc(NC(=O)c3ccc(F)cn3)cc1[C@@]21CCOC(N)=N1 [Example 96, N-((5S)-2′-amino-3-(3,6-dihydro-2H-pyran-4-yl)-1-methoxy-5′,6′-dihydrospiro[chromeno[2,3-c]pyridine-5,4′-[1,3]oxazin]-7-yl)-5-fluoro-2-pyridinecarboxamide] |
| – | 0.4 | 0.8 | Cc1nc(C(=O)Nc2ccc3c(c2)[C@@]2(CCOC(N)=N2)c2cc(-c4ccnc(F)c4)nc(F)c2O3)cs1 [Example 99, N-((5S)-2′-amino-1-fluoro-3-(2-fluoro-4-pyridinyl)-5′,6′-dihydrospiro[chromeno[2,3-c]pyridine-5,4′-[1,3]oxazin]-7-yl)-2-methyl-1,3-thiazole-4-carboxamide] |
| 400000 | – | – | COc1ccc(C(=O)Nc2ccc3c(c2)[C@@]2(CCOC(N)=N2)c2cc(-c4ccnc(F)c4)nc(F)c2O3)nc1 [Example 98, N-((5S)-2′-amino-1-fluoro-3-(2-fluoro-4-pyridinyl)-5′,6′-dihydrospiro[chromeno[2,3-c]pyridine-5,4′-[1,3]oxazin]-7-yl)-5-methoxy-2-pyridinecarboxamide] |
| 335000 | – | – | COc1cnc(C(=O)Nc2ccc3c(c2)[C@@]2(CCOC(N)=N2)c2cc(Cl)nc(F)c2O3)cn1 [Example 47, N-((5S)-2′-amino-3-chloro-1-fluoro-5′,6′-dihydrospiro[chromeno[2,3-c]pyridine-5,4′-[1,3]oxazin]-7-yl)-5-methoxy-2-pyrazinecarboxamide] |
| 401000 | 0.7 | – | NC1=N[C@@]2(CCO1)c1cc(NC(=O)c3ccc(Cl)cn3)ccc1Oc1ncc(-c3ccnc(F)c3)cc12 [Example 90, N-((5S)-2′-amino-3-(2-fluoro-4-pyridinyl)-5′,6′-dihydrospiro[chromeno[2,3-b]pyridine-5,4′-[1,3]oxazin]-7-yl)-5-chloro-2-pyridinecarboxamide] |
